From patent US9433571B2, “Irritation mitigating polymers and uses therefor” (Lubrizol Advanced Materials, Inc., priority 2012, dated 2016)
Like-named read-outs stand apart in the source and are kept apart here.

How the values were obtained:
[1] = system: Epiderm™ Human Tissue Model (EPI-200); test: MTT tissue viability assay (MTT ET-50 protocol) on EpiDerm skin cultures; conditions: for Viability (%): relative to H2O negative control
Protocol: Mitigation of skin irritancy induced by sodium dodecyl sulfate (SDS) surfactant dosed with the polymer of Example 11 is assessed in the Epiderm™ Human Tissue Model (EPI-200) bioassay conducted by MatTek Corporation, Ashland, Mass. The MatTek bioassay utilizes human derived epidermal keratinocytes (NHEK) which have been cultured to form a multilayered, highly differentiated model of the human epidermis.
The MTT tissue viability assay measures the NAD(P)H dependent microsomal enzyme reduction of MTT (and to a lesser extent, the succinate dehydrogenase reduction of MTT) after exposure to a treated skin culture test sample for various exposure times. The duration of exposure resulting in a 50% decrease in MTT conversion in test formulation treated EpiDerm™ cultures, relative to control cultures, is determined (ET-50).
Skin tissue culture inserts (Cat. No. EPI-200) are pre-incubated in the wells of 6-well plates containing 0.9 ml of MatTek assay medium (Cat. No. EPI-100-ASY) for 1 hr. at 37° C. in a humidified atmosphere of 5% CO2 in air. The 6-well plates containing the tissue culture inserts are removed from the incubator and the assay media is aspirated from the wells and replaced by an additional aliquot of 0.9 ml of pre-warmed (37° C.) assay media. For each exposure time wells are then dosed (2 repetitions) with 100 μl of the test formulations set forth in Table 10 (3 tissue culture wells are dosed with 100 μl ultra-pure water as a negative control for each of the test candidates). In addition, 100 μl of a positive control formulation (1% Triton X-100 in ultrapure water) is dosed into tissue culture wells (3 repetitions for each exposure time), as well as 3 repetitions of ultrapure water as a negative control. The exposure times of the test formulations, negative control and positive control are set forth below.
MTT assay plates are prepped by preparing a 24-well plate by adding 300 μl of MTT reagent solution to an appropriate number of wells to accommodate the test. The MTT reagent is utilized at a concentration of 1 mg/ml of MTT diluted in Dulbecco's Modified Eagle Medium (DMEM). The MTT/DMEM solution is centrifuged and decanted to remove any precipitate before use.
After exposure times of 60 (1 hr.), 120 (2 hrs.) and 210 (3.5 hrs.) minutes to the test solutions, the tissue cultures are removed from the incubator and thoroughly rinsed (2 times) with Dulbecco's phosphate buffered saline (DPBS) to remove the test material. The negative control is exposed for 4 hours and the positive control is exposed for time periods of 4, 6, 8, and 10 hours. Any remaining rinse media is decanted from the top of the tissue cultures. Each tissue culture insert is transferred to an appropriately labeled well of the 24-well plate containing the MTT reagent solution and placed back in the incubator. After 30 minutes reaction with the MTT reagent, the tissue cultures are removed from the incubator. Each tissue culture insert is removed from its well and the bottom is gently blotted with a lab tissue. The inserts are immersed into a labeled 24-well extraction plate containing 2 ml of isopropanol extractant solution. The 24-well extraction plate is covered with aluminum foil (to protect the samples from light) and placed into a sealable plastic bag to minimize evaporation of the extractant solution. The sealed 24-well extraction plate is set on an orbital shaker and gently shaken for 2 hours at ambient room temperature (approximately 20° C.). […]

eye = conditions: cited from earlier work

For `CCCCCCCCCCCCOS(=O)(=O)[O-].[Na+]` [Neat Surfactant, sodium dodecyl sulfate], the “Viability (%)” value ([1]; exposure time 1 hr) was 92.3%, the “Viability (%)” value ([1]; exposure time 2 hr) was 32.3% and the “Viability (%)” value ([1]; exposure time 3.5 hr) was 16.6%. For the same compound, the “ET-50 (exposure time which reduces tissue viability to 50%)” value ([1]; interpolated between exposure times that bracket 50% viability, 100 μl formulation per tissue) was 1.63 h.
For sodium laureth-12 sulfate, the eye irritation (eye) is given as “almost completely non-irritating”.
With Triton X-100 the “ET-50 (exposure time which reduces tissue viability to 50%)” value [1] was 5.93 h.
For `CCCCCCCCCCCCOS(=O)(=O)[O-].[Na+]` [sodium lauryl sulfate], the eye irritation (eye; literature statement (Schoenberg, 1979)) is given as “significant eye irritation”.
